In patent US6693208B2, “Compounds and compositions for delivering active agents” (Emisphere Technologies, Inc., priority 1999, dated 2004):

Assay: Heparin oral/intracolonic delivery in rats, heparin activity by APTT
Type: in vivo, Sprague-Dawley rats
Experimental: Oral gavage (PO) and/or intracolonic (IC) dosing solutions containing a delivery agent compound and heparin sodium USP in 25% aqueous propylene glycol were prepared. Either the sodium salt of the compound was used or the free acid was converted to the sodium salt with one equivalent of sodium hydroxide. Typically, delivery agent compound and heparin (about 166-182 IU/mg) were mixed by vortex as dry powders. This dry mixture was dissolved in 25% v/v aqueous propylene glycol, vortexed and placed in a sonicator (about 37° C.). The pH was adjusted to about 7 (6.5 to 8.5) with aqueous NaOH (2N). The dosing solution was sonicated to produce a clear solution. The final volume was adjusted to 3.0 mL. The final delivery agent compound dose, heparin dose and volume dose amounts are listed below in Table 2.
The typical dosing and sampling protocols were as follows. Male Sprague-Dawley rats weighing between 275-350 g were fasted for 24 hours and were anesthetized with ketamine hydrochloride (88 mg/kg) intramuscularly immediately prior to dosing. A dosing group of five rats was administered one of the dosing solutions. For oral gavage (PO) dosing, an 11 cm Rusch 8 French catheter was adapted to a 1 mL syringe with a pipette tip. The syringe was filled with dosing solution by drawing the solution through the catheter, which was then wiped dry. The catheter was placed down the esophagus leaving 1 cm of tubing past the rat's incisors. Solution was administered by pressing the syringe plunger. For intracolonic (IC) dosing, a 7.5 cm 8 fr Rusch catheter was adapted to a 1 ml syringe with a pipette tip. The dosing catheter was inserted into the colon through the anus. until the tube was no longer visible. The dosing solution was expressed slowly into the colon.
Citrated blood samples were collected by cardiac puncture following the administration of ketamine (88 mg/kg), typically at time—0.25, 0.5, 1.0 and 1.5 hours. Heparin activity was determined by utilizing the activated partial thromboplastin time (APTT) according to the method of Henry, J. B., Clinical Diagnosis and Management by Laboratory Methods, Philadelphia, Pa., W. B. Saunders (1979). Previous studied indicated baseline values of about 20 sec. Results from the five rats in each group were averaged for each time point. The maximum is reported below in Table 2.

[1] = IC, 1 ml/kg, compound 50 mg/kg, heparin 25 mg/kg
[2] = PO, 3 ml/kg, compound 200 mg/kg, heparin 100 mg/kg
[3] = IC, 1 ml/kg, compound 50 mg/kg, heparin 100 mg/kg

COc1ccc(O)c(C(=O)NCCCCCCCC(=O)O)c1 [Compound 1]
Mean Peak APTT (sec) ± SD) [1]: 102.3 ± 130.4 s

COc1ccccc1C(=O)NCCCCCCCCCCC(=O)O [Compound 3]
Mean Peak APTT (sec) ± SD) [1]: 44.2 ± 16.2 s

O=C(O)CCCCCCCCCNC(=O)c1cc(Cl)cc(Cl)c1O [Compound 4, N-(3,5-dichlorosalicyloyl)-10-aminodecanoic acid]
Mean Peak APTT (sec) ± SD) [1]: 94 ± 47.5 s

O=C([O-])CCc1ccc(NC(=O)c2ccccc2O)c(F)c1.[Na+] [Compound 5, sodium 3-(4-salicyloylamino-3-fluorophenyl)propionate]
Mean Peak APTT (sec) ± SD) [1]: 89.9 ± 68.6 s | Mean Peak APTT (sec) ± SD) [2]: 32.6 ± 5 s

Cc1cc(F)cc(C(=O)Nc2ccc(CCC(=O)O)cc2)c1O [Compound 6]
Mean Peak APTT (sec) ± SD) [1]: 90.6 ± 50.9 s | Mean Peak APTT (sec) ± SD) [2]: 33.8 ± 18.7 s

O=CNc1ccccc1C(=O)Nc1ccc(CCC(=O)O)cc1 [Compound 7]
Mean Peak APTT (sec) ± SD) [1]: 28.6 ± 6.1 s

COc1ccc(O)c(C(=O)Nc2ccc(CCC(=O)O)cc2)c1 [Compound 8]
Mean Peak APTT (sec) ± SD) [3]: 266.4 ± 165.7 s

COc1ccc(O)c(C(=O)Nc2ccc(CCCC(=O)O)cc2)c1 [Compound 9]
Mean Peak APTT (sec) ± SD) [3]: 192.8 ± 50.9 s
